Laboratory results published in ChEMBL document CHEMBL1201862, “PubChem BioAssay data set” (2004).
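Growth conditions: 96-well plates. Treatment: test compound, 48 hours, 5 concentrations. Analysis: linear interpolation between bracketing concentrations; unreached endpoints set to highest concentration. GI50 is the concentration that inhibits growth by half.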 Calls of active or inactive are those of the source. No stated cut-off is given here; in the data, active = GI50 up to about 1.1 µM and inactive = higher.

Assays:
Test in all cases: NCI anticancer screen, dose series, 48 h
M14 = test system: M14
HOP-92 = test system: HOP-92
A549 = test system: A549
SK-MEL-5 = test system: SK-MEL-5
NCI/ADR-RES = test system: NCI/ADR-RES
EKVX = test system: EKVX
MDA-MB-231 = test system: MDA-MB-231
OVCAR-3 = test system: OVCAR-3
MDA-N = test system: MDA-N
ACHN = test system: ACHN
MDA-MB-435 = test system: MDA-MB-435
HCC 2998 = test system: HCC 2998
SN12C = test system: SN12C
RPMI-8226 = test system: RPMI-8226
IGROV-1 = test system: IGROV-1
KM12 = test system: KM12
CAKI-1 = test system: CAKI-1

SMILES	GI50 (M14)	GI50 (HOP-92)	GI50 (A549)	GI50 (SK-MEL-5)	GI50 (NCI/ADR-RES)	GI50 (EKVX)	GI50 (MDA-MB-231)	GI50 (OVCAR-3)	GI50 (MDA-N)	GI50 (ACHN)	GI50 (MDA-MB-435)	GI50 (HCC 2998)	GI50 (SN12C)	GI50 (RPMI-8226)	GI50 (IGROV-1)	GI50 (KM12)	GI50 (CAKI-1)
COC(=O)c1c(C)c2c(c(C)c1O)OC(=O)c1c(C)cc(O)c(C=O)c1O2	> 100 µM (inactive)	> 100 µM (inactive)	> 100 µM (inactive)	> 100 µM (inactive)	> 100 µM (inactive)	> 100 µM (inactive)	> 100 µM (inactive)	> 100 µM (inactive)	> 100 µM (inactive)	> 100 µM (inactive)	> 100 µM (inactive)	> 100 µM (inactive)	> 100 µM (inactive)	> 100 µM (inactive)	69.7 µM (inactive)	> 100 µM (inactive)	–
O=C1C=CC(=O)c2c1ccc1c3ccccc3n(Cc3ccc([N+](=O)[O-])cc3)c21	> 100 µM (inactive)	–	> 100 µM (inactive)	> 100 µM (inactive)	> 100 µM (inactive)	> 100 µM (inactive)	> 100 µM (inactive)	> 100 µM (inactive)	> 100 µM (inactive)	> 100 µM (inactive)	> 100 µM (inactive)	> 100 µM (inactive)	> 100 µM (inactive)	> 10 µM (inactive)	> 100 µM (inactive)	> 100 µM (inactive)	> 100 µM (inactive)
CS(=O)(=O)OC1CN2CCC1CC2 (configuration not stated)	> 100 µM (inactive)	> 100 µM (inactive)	> 100 µM (inactive)	> 100 µM (inactive)	> 100 µM (inactive)	> 100 µM (inactive)	> 100 µM (inactive)	> 100 µM (inactive)	> 100 µM (inactive)	> 100 µM (inactive)	> 100 µM (inactive)	–	> 100 µM (inactive)	> 100 µM (inactive)	> 100 µM (inactive)	> 100 µM (inactive)	> 100 µM (inactive)
Cc1ccc(-c2cn3c(nc4ccccc43)c(/C=C/c3ccco3)n2)cc1	> 100 µM (inactive)	> 100 µM (inactive)	> 100 µM (inactive)	34.8 µM (inactive)	> 100 µM (inactive)	–	> 100 µM (inactive)	49.8 µM (inactive)	42.1 µM (inactive)	> 100 µM (inactive)	29.2 µM (inactive)	> 100 µM (inactive)	86.9 µM (inactive)	21 µM (inactive)	62.1 µM (inactive)	50.1 µM (inactive)	–
CCc1ccc2c(c1)/C(=C1/Nc3ccccc3/C1=N/O)C(=O)N2	12.6 µM (inactive)	–	6.37 µM (inactive)	3.7 µM (inactive)	6.84 µM (inactive)	5.19 µM (inactive)	20 µM (inactive)	3.4 µM (inactive)	7.53 µM (inactive)	3.84 µM (inactive)	7.55 µM (inactive)	3.3 µM (inactive)	5.61 µM (inactive)	5.15 µM (inactive)	5.08 µM (inactive)	0.117 µM (active)	2.24 µM (inactive)
CC1OC(n2cc(F)c(=O)[nH]c2=O)C(O[Si](C)(C)C(C)(C)C)C1O[Si](C)(C)C(C)(C)C (configuration not stated)	20.2 µM (inactive)	–	15.8 µM (inactive)	14.9 µM (inactive)	12.7 µM (inactive)	16.9 µM (inactive)	5.78 µM (inactive)	15 µM (inactive)	15.5 µM (inactive)	14 µM (inactive)	17.9 µM (inactive)	13.4 µM (inactive)	12.4 µM (inactive)	11.6 µM (inactive)	13.3 µM (inactive)	11.9 µM (inactive)	13.6 µM (inactive)
CN(CCNC(=O)c1n[nH]c2c1Cc1ccccc1-2)CCNC(=O)c1n[nH]c2c1Cc1ccccc1-2	18.7 µM (inactive)	17.3 µM (inactive)	20.6 µM (inactive)	16.9 µM (inactive)	37.8 µM (inactive)	20.6 µM (inactive)	19 µM (inactive)	14.9 µM (inactive)	16.5 µM (inactive)	17.1 µM (inactive)	17.5 µM (inactive)	15.4 µM (inactive)	16.7 µM (inactive)	–	16.3 µM (inactive)	17.3 µM (inactive)	16.7 µM (inactive)
C1=C[C@]2(CCC13OCCO3)COc1ccccc12	26.6 µM (inactive)	46.7 µM (inactive)	> 100 µM (inactive)	52 µM (inactive)	27.4 µM (inactive)	66.1 µM (inactive)	75.9 µM (inactive)	36.1 µM (inactive)	35.6 µM (inactive)	36.6 µM (inactive)	31.9 µM (inactive)	43.6 µM (inactive)	74.8 µM (inactive)	25.5 µM (inactive)	–	26.3 µM (inactive)	> 100 µM (inactive)
O=C1CCC2(CC1CCSc1ccccc1)OCCO2 (configuration not stated)	> 100 µM (inactive)	> 100 µM (inactive)	> 100 µM (inactive)	88.5 µM (inactive)	> 100 µM (inactive)	> 100 µM (inactive)	> 100 µM (inactive)	> 100 µM (inactive)	> 100 µM (inactive)	> 100 µM (inactive)	> 100 µM (inactive)	> 100 µM (inactive)	–	> 100 µM (inactive)	> 100 µM (inactive)	> 100 µM (inactive)	> 100 µM (inactive)
Cc1ccc(C2=CC(=O)/C(=C\C(=O)c3ccc(Br)cc3)O2)c(C)c1	11.6 µM (inactive)	6.4 µM (inactive)	18.7 µM (inactive)	14.5 µM (inactive)	7.91 µM (inactive)	28.6 µM (inactive)	9.31 µM (inactive)	5.3 µM (inactive)	6.11 µM (inactive)	4.57 µM (inactive)	13.6 µM (inactive)	12.1 µM (inactive)	13.2 µM (inactive)	2.87 µM (inactive)	18.4 µM (inactive)	20.4 µM (inactive)	3.04 µM (inactive)
C=C1CC(C)(c2cccc(Nc3nc4ccccc4c4occc34)c2)OC1=O (configuration not stated)	2.84 µM (inactive)	1.44 µM (inactive)	3.92 µM (inactive)	15.1 µM (inactive)	8 µM (inactive)	14.7 µM (inactive)	5.11 µM (inactive)	4.8 µM (inactive)	5.21 µM (inactive)	4.8 µM (inactive)	5.11 µM (inactive)	2.43 µM (inactive)	2.83 µM (inactive)	2.03 µM (inactive)	–	5.08 µM (inactive)	3.98 µM (inactive)
N=C(N)SCCON1C(=O)c2ccccc2C1=O	> 100 µM (inactive)	> 100 µM (inactive)	> 100 µM (inactive)	> 100 µM (inactive)	> 100 µM (inactive)	> 100 µM (inactive)	> 100 µM (inactive)	> 100 µM (inactive)	> 100 µM (inactive)	> 100 µM (inactive)	> 100 µM (inactive)	–	> 100 µM (inactive)	> 100 µM (inactive)	> 100 µM (inactive)	> 100 µM (inactive)	> 100 µM (inactive)
CC1=C(OC2OC(CO)C(O)C(O)C2O)C(=O)C[C@H]2C1=CC[C@@H]1[C@@]2(C)C(=O)C[C@]2(C)[C@@H]([C@@](C)(O)C(=O)CCC(C)(C)O)[C@H](O)C[C@@]12C (some centres not stated)	> 100 µM (inactive)	> 100 µM (inactive)	> 100 µM (inactive)	> 100 µM (inactive)	> 100 µM (inactive)	> 100 µM (inactive)	> 100 µM (inactive)	> 100 µM (inactive)	> 100 µM (inactive)	> 100 µM (inactive)	> 100 µM (inactive)	> 100 µM (inactive)	> 100 µM (inactive)	–	> 100 µM (inactive)	> 100 µM (inactive)	> 100 µM (inactive)
CC1=NN=C(N)N/C1=C\C(Sc1ccc(Cl)cc1)c1ccc(Cl)cc1Cl (configuration not stated)	13.6 µM (inactive)	9.71 µM (inactive)	8.34 µM (inactive)	14.8 µM (inactive)	17.6 µM (inactive)	13.2 µM (inactive)	21.1 µM (inactive)	–	19.7 µM (inactive)	14.2 µM (inactive)	18.1 µM (inactive)	4.67 µM (inactive)	24.8 µM (inactive)	14.1 µM (inactive)	8.61 µM (inactive)	6.41 µM (inactive)	25.4 µM (inactive)
CC(NC(=O)OCc1ccccc1)NC(=O)C(CC(=O)OC(C)(C)C)NC(=O)OC(C)(C)C (configuration not stated)	> 100 µM (inactive)	> 100 µM (inactive)	> 100 µM (inactive)	> 100 µM (inactive)	> 100 µM (inactive)	> 100 µM (inactive)	> 100 µM (inactive)	> 100 µM (inactive)	> 100 µM (inactive)	> 100 µM (inactive)	> 100 µM (inactive)	–	> 100 µM (inactive)	> 100 µM (inactive)	> 100 µM (inactive)	> 100 µM (inactive)	> 100 µM (inactive)
CCOC(=O)c1[nH]c2nc(SC)nc(NC)c2c1N	92.7 µM (inactive)	–	> 100 µM (inactive)	30.3 µM (inactive)	59.6 µM (inactive)	–	> 100 µM (inactive)	> 100 µM (inactive)	> 100 µM (inactive)	> 100 µM (inactive)	> 100 µM (inactive)	87.5 µM (inactive)	> 100 µM (inactive)	46 µM (inactive)	> 100 µM (inactive)	> 100 µM (inactive)	> 100 µM (inactive)
O=[N+]([O-])c1ccc(-c2nnc(C34CC5CC(CC(C5)C3)C4)o2)cc1	> 100 µM (inactive)	> 100 µM (inactive)	> 100 µM (inactive)	> 100 µM (inactive)	> 100 µM (inactive)	> 100 µM (inactive)	> 100 µM (inactive)	> 100 µM (inactive)	> 100 µM (inactive)	> 100 µM (inactive)	> 100 µM (inactive)	> 100 µM (inactive)	> 100 µM (inactive)	> 100 µM (inactive)	> 100 µM (inactive)	> 100 µM (inactive)	> 100 µM (inactive)
